Results reported in patent US20200255884A1, “METHOD OF DETECTION OF DNA END(S) AND ITS USE” (INTODNA SP. Z O.O., priority 2017, published 2020).

Test system: HeLa 21-4 cells
Assay: Combination of Procedures 1 and 2 for detection of DNA breaks in isolated chromatin of HeLa cells
Assay type: cell-based
Conditions: H2O2 4 mM, 30 minutes; control 6.0±0.1
Procedure: In this Example, HeLa 21-4 cells (obtained from P.R. Cook, University of Oxford) were seeded on 6-well plates and cultured for 48 hours in DMEM supplemented with 10% FBS until the culture reached 100% confluency (number of cells: 1.2×10^6 per 1 well). Next, cells were treated with the DNA damaging agent H2O2 which was added directly to the growth medium (final concentration: 4 mM). The cells were incubated at 37° C. for 30 minutes in the standard cell culture incubator with CO2 level control. The control, untreated cells and the damaged cells (H2O2) were then harvested using 0.5 ml trypsin and transferred to 1.5 ml Eppendorf tubes. Afterwards, trypsin was inactivated by adding 0.5 ml DMEM supplemented with 10% FBS. Subsequently, cells were spun down in the table top centrifuge (Eppendorf centrifuge, 5417 C, rotor: F45-30-11) (1700 rpm, 5 minutes, room temperature). The cell pellet was resuspended in 10 mM Tris (pH 8.8), a small aliquot of the cells in suspension (50 μl) was transferred to a new 1.5 ml Eppendorf tube and spun down in the table top centrifuge (1 minute, 14000 rpm, room temperature). The supernatant was discarded and the washing step in the same volume (50 μl) of 10 mM Tris (pH 8.8) was repeated (centrifugation in the table top centrifuge (1 minute, 14000 rpm, room temperature)). […]

Structure (SMILES): OO [H2O2]
- fluorescence intensity (mean grey value) of immobilized modified DNA: 8.9±0.1 a.u.
